Eight compounds from patent US10040806B2, “Microbiocidally active benzoxaboroles” (Syngenta Participations AG, priority 2014, dated 2018) can be followed below.

Some results are limits rather than exact numbers.

Data set [1] deals with Mycosphaerella arachidis (Cercospora arachidicola). Description: Mycosphaerella arachidis (Cercospora arachidicola)/liquid culture (early leaf spot). It is filed as cell-based. The following applies: liquid culture, PDB, inhibition of growth determined photometrically 4-5 days after application, read-out: disease control.
The test system of data set [2] is Pythium ultimum. The data set can be described thus: Pythium ultimum/liquid culture (seedling damping off). It is filed as cell-based. The following applies: Globisporangium ultimum, liquid culture, potato dextrose broth, inhibition of growth determined photometrically 2-3 days after application, read-out: disease control.
In data set [3] the test system is Monographella nivalis (Microdochium nivale). Description: Monographella nivalis (Microdochium nivale)/liquid culture (foot rot cereals). It is filed as cell-based. The following applies: liquid culture, PDB, inhibition of growth determined photometrically 4-5 days after application, read-out: disease control.
Data set [4] relates to Mycosphaerella graminicola (Septoria tritici). Description: Mycosphaerella graminicola (Septoria tritici)/liquid culture (Septoria blotch). It is filed as cell-based. As to conditions: Zymoseptoria tritici, liquid culture, PDB, inhibition of growth determined photometrically 4-5 days after application, read-out: disease control.

Turning to `COc1cc2c(cc1Cl)COB2O` [Compound 5, 5-chloro-1-hydroxy-6-methoxy-3H-2,1-benzoxaborole], the inhibition of growth at 20 ppm in data set [1], in data set [2], in data set [3] and in data set [4] was ≥ 80% each time.
A word on the melting point: it is the temperature, or range, at which the solid turns liquid. Consider `CCOc1cc2c(cc1Cl)COB2O` [Compound 9, 5-chloro-6-ethoxy-1-hydroxy-3H-2,1-benzoxaborole], for which the melting point lay in the range of 146 to 148 °C. Also, the inhibition of growth at 20 ppm in data set [1] is ≥ 80%. In data set [2], the inhibition of growth at 20 ppm was ≥ 80%. Besides, the inhibition of growth at 20 ppm in data set [3] is ≥ 80%. Moreover, the inhibition of growth at 20 ppm in data set [4] was ≥ 80%.
Consider `CCOc1c(Cl)cc2c(c1Cl)B(O)OC2` [Compound 95, 5,7-dichloro-6-ethoxy-1-hydroxy-3H-2,1-benzoxaborole], for which the melting point was 109 to 111 °C. In data set [1], the inhibition of growth at 20 ppm is ≥ 80%. Besides, the inhibition of growth at 20 ppm in data set [2] is ≥ 80%. In data set [3], the inhibition of growth at 20 ppm is ≥ 80%. In addition, the inhibition of growth at 20 ppm in data set [4] was ≥ 80%.
In the case of `OB1OCc2cc3c(cc21)OC(F)(F)O3` [Compound 1], the melting point was in the range of 147 to 149 °C. For the same compound, the inhibition of growth at 20 ppm in data set [1] is ≥ 80%. Moreover, the inhibition of growth at 20 ppm in data set [2] is ≥ 80%. For the same compound, in data set [3], the inhibition of growth at 20 ppm is ≥ 80%. Besides, in data set [4], the inhibition of growth at 20 ppm is ≥ 80%.
`COc1cc(Cl)cc2c1B(O)OC2` [Compound 104, 5-chloro-1-hydroxy-7-methoxy-3H-2,1-benzoxaborole] displayed a melting point of 146 to 148 °C. The inhibition of growth at 20 ppm in data set [1] is ≥ 80%. In data set [2], the inhibition of growth at 20 ppm was ≥ 80%. Also, the inhibition of growth at 20 ppm in data set [3] is ≥ 80%. Further, the inhibition of growth at 20 ppm in data set [4] is ≥ 80%.
For `CCOc1cc2c(cc1C)COB2O` [Compound 38, 6-ethoxy-1-hydroxy-5-methyl-3H-2,1-benzoxaborole], the melting point is 97 to 100 °C. The inhibition of growth at 20 ppm in data set [1] is ≥ 80%. Also, in data set [2], the inhibition of growth at 20 ppm was ≥ 80%. For the same compound, the inhibition of growth at 20 ppm in data set [3] was ≥ 80%. Besides, in data set [4], the inhibition of growth at 20 ppm was ≥ 80%.
`OB1OCc2cc(Cl)c(O)c(Cl)c21` [Compound 94, 5,7-dichloro-1-hydroxy-3H-2,1-benzoxaborol-6-ol] gave a melting point of 174 to 176 °C. In addition, in data set [1], the inhibition of growth at 20 ppm was ≥ 80%. For the same compound, the inhibition of growth at 20 ppm in data set [2] is ≥ 80%. Moreover, the inhibition of growth at 20 ppm in data set [3] was ≥ 80%. The inhibition of growth at 20 ppm in data set [4] was ≥ 80%.
`OB1OCc2cc(Cl)c(O)cc21` [Compound 6, 5-chloro-1-hydroxy-3H-2,1-benzoxaborol-6-ol] gave a melting point of 194 to 195 °C. Further, the inhibition of growth at 20 ppm in data set [1] was ≥ 80%. Besides, the inhibition of growth at 20 ppm in data set [2] is ≥ 80%. Further, in data set [3], the inhibition of growth at 20 ppm was ≥ 80%. In data set [4], the inhibition of growth at 20 ppm was ≥ 80%.
